The test system of data set [1] is Candida albicans ATCC 10231. In words: Agar disc diffusion. To be noted: disc loaded with about 0.01mg; for Zone of inhibition: C. albicans; for zone of inhibition at 10 µg/disc: Candida albicans, ATCC10231, C. albicans. Background: A growth-free zone around the sample is the usual read-out of agar diffusion tests.
Procedure: (§8) Staphylococcus aureus ATCC 6538, Escherichia coli ATCC 25922, Candida albicans ATCC 10231and Aspergillus niger NRRL-A326 were supplied from Culture Collection Center. The antimicrobial activity of A. terreus extract and 1–4 was investigated by the agar disc diffusion method (Abdel-Wareth et al. [2019]). Nutrient agar (bacteria and yeast) and PDA (fungi) plates were seeded with 0.1 mL of 10^5–10^6 cells/mL then the filter paper discs (0.5 cm) were loaded with about 0.01mg from the extract and compounds, and put on the inoculated agar or PDA plates surface and stayed for 2–4 h at 4°C to reach maximum diffusion. After that, incubation of the plate at 30°C for 24 and 48 h for bacteria and fungi, respectively, to permit maximum growth then the inhibition zone diameter was measured in millimeters (mm). Experiments were carried out in triplicate.
Data set [2] relates to Aspergillus niger NRRL-A326. In words: Agar disc diffusion. The note with it: for Zone of inhibition: A. niger, disc loaded with about 0.01mg; for zone of inhibition at 10 µg/disc: Aspergillus niger, NRRLA326.
Procedure: as §8
Data set [3] concerns Escherichia coli ATCC 25922. Briefly: Agar disc diffusion. To be noted: for Zone of inhibition: E. coli, disc loaded with about 0.01mg; for zone of inhibition at 10 µg/disc: Escherichia coli, ATCC25922.
Procedure: as §8
The subject of data set [4] is Staphylococcus aureus ATCC 6538. In words: Agar disc diffusion. To be noted: disc loaded with about 0.01mg; for Zone of inhibition: S. aureus; for zone of inhibition at 10 µg/disc: Staphylococcus aureus, ATCC6538, S. aureus.
Procedure: as §8
The test system of data set [5] is TNF-α. In words: LPS-induced inflammatory model, TNF-α level by ELISA. It counts as cell-based, Murine. To be noted: LPS (500 ng/mL)-induced RAW 264.7, sample at ¼ IC50, ELISA of medium; LPS control 452.5 0 ± 46.1. As for the experimental part: (§1) Murine macrophage cells (RAW 264.7), supplied by American Type Culture Collection (ATCC), were grown on Dulbecco′s Modified Eagle Medium (DMEM), accompanied with 10%, […] and 100 μg/mL from bovine serum, penicillin, and streptomycin respectively. After that, cells were incubated in a CO2 atmosphere (5%, 37 °C) then they sub-cultured every 2 days and the cells of the exponential phase were used all over the procedure.
(§2) RAW 264.7 cells (1.8 × 10^5 cells/mL) were seeded for 18 h in a 24-well plate having DMEM medium (1 mL). […] Then, LPS (Sigma-Aldrich Cat No: L2630) (500 ng/mL, LPS control) was added to all treated and untreated wells to induce the inflammatory process. After incubation for 24 h, the media were taken and frozen till analysis. The untreated wells represented the LPS control group.
(§3) TNF- α quantitative assay ELISA kit (Abcam, ab181421 Human TNF alpha Simple Step) and Il-6 quantitative assay ELISA kit (Abcam, Ab178013 Human IL-6 Simple Step) were used to quantify IL-6 and TNF- α levels in the cell culture medium following the manufacturer′s instructions (Afshari et al. [2005]).
(In general: ELISA stands for enzyme-linked immunosorbent assay.)

A further data set relates to C. albicans. Briefly: MIC and MBC, resazurin microplate dilution. It counts as cell-based, Candida albicans. Here is the method:
(§4) The tested strains were cultivated in 100 mL bottles at 35 °C for 24 h on Mueller Hinton medium (Sigma-Aldrich, Germany). Bacteria and fungi cells (pellet) were collected by centrifugation at 5000 rpm, 4 °C, and under aseptic conditions, then washed with sterile saline till the supernatant became clear. […] Duplicate plates were prepared and incubated (37 °C, 18-24 h). The lowest concentration at which the color is changed is the MIC data, while MBC has been calculated by streaking two concentrations higher than MIC showing no growth ([…] et al. [2007]).
In general terms: The colour change of resazurin is a common sign of viable cells or microbes.

Data set [6] has as its system IL-6. In words: LPS-induced inflammatory model, IL-6 level by ELISA. It counts as cell-based, Murine. The note with it: LPS (500 ng/mL)-induced RAW 264.7, sample at ¼ IC50, ELISA of medium; LPS control 227.50 ± 29.2. Here is the method:
as §1, §2, §3

The nature of the next data set: MTT cell viability. To be noted: mouse, RAW 264.7 cells. It counts as cell-based, Murine. Here is the method: as §1
(§5) In vitro cytotoxicity assay kit MTT-based was purchased from Sigma- Aldrich, MTT cat No: M-5655, MTT solubilization solution: M-8910). RAW 264.7 cells (10,000/well) were plated in a 96-well plate then the test compounds (1–4) and the extract were diluted by a serial dilution technique (1000–4 μg/mL) were introduced and the plate was placed in a CO2 incubator (37 °C for 24 h). The cells were washed by DMEM and incubated with MTT solution (40 μL, 4 h). DMSO (180 μL) was used to solubilize the crystals of formazan and the produced color was measured at λ570 nm. The results were normalized against the control and the cell viability percentage was estimated as follows: %Cell viability=(Absorbance of sample/Absorbance of control)x100.

In the next data set the test system is S. aureus. In words: MIC and MBC, resazurin microplate dilution. It counts as cell-based, Staphylococcus aureus. Here is the method: as §4
Data set [7] concerns the target ACE2/Spike (RBD) protein interaction (Homo sapiens, UniProt Q9BYF1). In words: ACE2: SARS-CoV-2 spike inhibitor screening colorimetric assay. It counts as binding.
For data set [8], the system named is IL-6. In words: RT-PCR, IL-6 mRNA expression in LPS-stimulated RAW 264.7 cells. It counts as cell-based, Murine. The note with it: LPS-induced RAW 264.7, compared to LPS control. Here is the method: as §2
(§6) RAW 264.7 cells were washed two times and then harvested in PBS (1 mL). Total RNA from the stimulated RAW 264.7 cells was extracted utilizing Qiagen RNA extraction (Qiagen, MD, USA) following the instructions of the procedure. cDNA was synthesized by iScript cDNA synthesis kit (Bio-Rad Laboratories Pty. Ltd, Gladesville, Australia). Rotorgene RT-PCR system (QIAGEN, Germany) was used for PCR amplification using BioRad cyber green PCR MMX (Bio-Rad Laboratories Pty. Ltd, Gladesville, Australia). The primers used for the amplification of IL-6, TNF-α, and β-actin genes are represented in Additional file 1: Table S4.
(§7) The Formula 2^−(ΔΔCt) was used to calculate the relative fold change between samples and control.

A further data set deals with RAW 264.7 cells. Briefly: MTT cell viability. It counts as cell-based, Murine. The note with it: 24 h. Here is the method: as §1, §5
The subject of data set [9] is TNF-α. In words: RT-PCR, TNF-α mRNA expression in LPS-stimulated RAW 264.7 cells. It counts as cell-based, Murine. The note with it: LPS-induced RAW 264.7, compared to LPS control. Here is the method: as §2, §6, §7
The mark [10] stands for this setting: RAW 264.7 macrophage cells, read-out: IC50 mean ± SD (cytotoxic effect).
Where [11] appears, read: RAW 264.7 macrophage cells, value given in µM, read-out: IC50 (cytotoxic effect) (converted).
Setting [12] is: read-out: IC50 mean ± SD (cytotoxic effect).
[13] abbreviates: value given in µM, read-out: IC50 (cytotoxic effect) (converted).

The source of these data is PMC10547674, “Bioactive metabolites identified from Aspergillus terreus derived from soil” (AMB Express, 2023).

In brackets after ≈: the same amount, converted by molar mass. Read-outs that look alike come from different tables or passages of the source.

Chain of ACE2/Spike (RBD) protein interaction (Q9BYF1 18-740): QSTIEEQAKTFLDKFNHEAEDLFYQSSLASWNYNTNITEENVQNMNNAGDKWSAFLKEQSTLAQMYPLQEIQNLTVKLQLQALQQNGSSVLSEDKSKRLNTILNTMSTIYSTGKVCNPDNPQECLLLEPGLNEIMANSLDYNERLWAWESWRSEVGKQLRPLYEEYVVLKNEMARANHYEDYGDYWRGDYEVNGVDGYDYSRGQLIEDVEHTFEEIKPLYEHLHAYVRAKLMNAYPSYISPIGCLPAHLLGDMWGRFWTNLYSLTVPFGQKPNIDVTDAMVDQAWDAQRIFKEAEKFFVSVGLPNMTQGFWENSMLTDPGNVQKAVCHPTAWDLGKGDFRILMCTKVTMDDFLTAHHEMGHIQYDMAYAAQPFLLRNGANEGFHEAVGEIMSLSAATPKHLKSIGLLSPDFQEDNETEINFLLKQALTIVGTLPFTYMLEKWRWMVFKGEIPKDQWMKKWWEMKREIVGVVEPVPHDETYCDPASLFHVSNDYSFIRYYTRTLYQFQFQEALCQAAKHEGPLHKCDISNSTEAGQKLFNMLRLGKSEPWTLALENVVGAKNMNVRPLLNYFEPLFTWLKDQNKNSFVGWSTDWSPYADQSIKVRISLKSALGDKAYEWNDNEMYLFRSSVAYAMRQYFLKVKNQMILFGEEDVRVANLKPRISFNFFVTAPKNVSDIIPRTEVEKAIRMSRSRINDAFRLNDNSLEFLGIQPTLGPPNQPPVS

Turning to `C[C@@H]1C[C@@H]([C@H](O)CC2CC(=O)NC(=O)C2)C(=O)[C@@H](C)C1` [Cyclohexamide, reference compound], the Zone of inhibition in data set [1] is 0 mm; in data set [2], 29 mm; in [3], 0 mm; in data set [4], 0 mm.
On to Neomycin [reference compound], for which the Zone of inhibition is reported as 23 mm in data set [1], 0 mm in data set [2], 8 mm in data set [3] and 21 mm in [4].
On to `CSC(O)(N1C(=O)CNC(=O)C1Cc1c[nH]c2ccccc12)N1C(=O)CC(=O)N2C(=O)c3cc(O)ccc3CC21` (stereo not shown) [Compound 4, asterrine], for which the Zone of inhibition in data set [1] was 15 mm; in data set [4], 25 mm. The zone of inhibition (usually the size of the clear area around the sample on an inoculated plate) at 10 µg/disc in [1] is 11 to 22 mm; in data set [2], 0 mm; in data set [3] it was 0 mm; in data set [4] it was 19 to 25 mm. The “TNF-α mean ± SD” value in the data set on TNF-α [5] was found to be 268.30 ± 3.43 pg/mL. The minimum inhibitory concentration (MIC) – broadly, the lowest concentration found to suppress growth – against C. albicans (C. albicans) came to 250 µg/mL (≈ 444 µM); with C. albicans (Candida albicans, C. albicans, read-out: MIC) it was 250 µg/mL (≈ 444 µM); with S. aureus (Staphylococcus aureus, S. aureus, read-out: MIC) it was 125 µg/mL (≈ 222 µM). The MBC turned out to be 500 µg/mL (≈ 887 µM) in the data set with C. albicans (Candida albicans, C. albicans, read-out: MBC); 250 µg/mL (≈ 444 µM) with S. aureus (S. aureus); 250 µg/mL (≈ 444 µM) in the data set with S. aureus (Staphylococcus aureus, S. aureus, read-out: MBC). The “IL-6, mean ± SD” value with IL-6 [6] stood at 129.00 ± 1.77 pg/mL. The IC50 (commonly the midpoint of a concentration-inhibition curve) at 24 h in the data set “MTT cell viability” (setting [10]) was 449 ± 25.2 µg/mL; in the data set “MTT cell viability” (setting [11]), 797 µM. For the same molecule, the half-maximal inhibitory concentration (IC50) in data set [7] (tested 5–50 µg/mL, triplicates) was 15.1 µM; in data set [7] (value given in µM), 15.1 µM.
Consider `COC(=O)[C@]1(Cc2ccc(O)c(CC=C(C)C)c2)OC(=O)C(O)=C1c1ccc(O)cc1` [Compound 2, butyrolactone I], for which the Zone of inhibition in data set [1] is 11 mm; in data set [4], 19 mm. In addition, the zone of inhibition at 10 µg/disc in [1] is 11 to 22 mm; in data set [2], 0 mm; in [3], 0 mm; in data set [4] it was 19 to 25 mm. In addition, the “expression of IL-6 mRNA” value in the data set on IL-6 [8] was “best inhibitory activity”. In the data set with TNF-α [5], the “TNF-α mean ± SD” value amounted to 87.97 ± 6.7 pg/mL. Moreover, the MBC in the data set on C. albicans (Candida albicans) and in the data set with S. aureus (Staphylococcus aureus) was 250 µg/mL (≈ 589 µM) each time. Further, the minimal inhibitory concentration (MIC) against C. albicans (Candida albicans) and with S. aureus (Staphylococcus aureus) was 250 µg/mL (≈ 589 µM) each time. For the same molecule, the “IL-6, mean ± SD” value in the data set with IL-6 [6] is 37.25 ± 0.87 pg/mL. Moreover, the “IC50 mean ± SD (cytotoxic effect)” value with RAW 264.7 cells worked out at 718.7 ± 40.4 µg/mL (≈ 1690 µM). For the same molecule, the 50% inhibitory concentration (IC50) at 24 h in the data set “MTT cell viability” (setting [12]) was 718 µg/mL; in the data set “MTT cell viability” (setting [13]), 1690 µM. For the same molecule, the IC50 in data set [7] (tested 5–50 µg/mL, triplicates) is 29.4 µM; in [7] (value given in µM), 29.5 µM.
For `CCC/C=C\C/C=C\CCCCC(=O)OCC(COC(=O)CCCC/C=C\C/C=C\CCC)OC(=O)CCCC/C=C\CCCCC` [Compound 1, 1,3-di-(6Z,9Z)-trideca-6,9-dienoyl-2-(6Z) dodec-6-enoyl glycerol], the zone of inhibition at 10 µg/disc in data set [1], in [2], in data set [3] and in data set [4] was 0 mm throughout. The “TNF-α mean ± SD” value with TNF-α [5] was found to be 68.220 ± 3.09 pg/mL. For the same molecule, in the data set with IL-6 [6], the “IL-6, mean ± SD” value was found to be 51.63 ± 2.79 pg/mL. Besides, in the data set on TNF-α [9], the “expression of TNF-α mRNA” value is listed as “most activity”. Besides, the IC50 at 24 h in the data set “MTT cell viability” (setting [10]) is 858 µg/mL; in the data set “MTT cell viability” (setting [11]), 1290 µM. The IC50 was 16 µM in data set [7] (tested 5–50 µg/mL, triplicates) and 15.8 µM in [7] (value given in µM).
As for `COC(=O)[C@]1(Cc2ccc(O)c(CC3OC3(C)C)c2)OC(=O)C(O)=C1c1ccc(O)cc1` (stereo partly shown) [Compound 3, butyrolactone III], the zone of inhibition at 10 µg/disc in [1], in [2], in data set [3] and in data set [4] was 0 mm each time. In addition, the “IC50 mean ± SD (cytotoxic effect)” value in the data set on RAW 264.7 cells was found to be 246.8 ± 13.9 µg/mL (≈ 560 µM). Besides, the values for the half-inhibitory concentration (IC50) at 24 h in “MTT cell viability” (setting [12]) and in “MTT cell viability” (setting [13]) were 246 µg/mL and 561 µM, respectively. Also, the half-inhibitory concentration (IC50) in data set [7] (tested 5–50 µg/mL, triplicates) is 21.6 µM; in [7] (value given in µM) it was 21.6 µM.
